Series [1] concerns rat CYP3A23 gene cellular promoter. As to the method: The PCR-amplified sequences and target mutagenesis were confirmed by DNA sequencing.
(§1) All compounds were purchased from Sigma.
The above notion would predict: (1) The SXR/PXR response element is essential for the activation of CYP3A genes; and (2) The response elements of SXR and PXR are interchangeable. Therefore, mutagenesis analysis was performed on the promoter of the rat CYP3A23 gene to examine these predictions.

Series [2] deals with SXR. Put plainly: Activation of SXR in transfection-based assays. Further details: activation of SXR: dose or concentration left out as unconfirmed. As to the method: To characterize its response properties, a large variety of steroids, including intermediate and major products of known steroid biosynthetic pathways were tested.
A further series has as its target T1, GR (Homo sapiens, UniProt P04150).
T1 sequence (P04150 1-777): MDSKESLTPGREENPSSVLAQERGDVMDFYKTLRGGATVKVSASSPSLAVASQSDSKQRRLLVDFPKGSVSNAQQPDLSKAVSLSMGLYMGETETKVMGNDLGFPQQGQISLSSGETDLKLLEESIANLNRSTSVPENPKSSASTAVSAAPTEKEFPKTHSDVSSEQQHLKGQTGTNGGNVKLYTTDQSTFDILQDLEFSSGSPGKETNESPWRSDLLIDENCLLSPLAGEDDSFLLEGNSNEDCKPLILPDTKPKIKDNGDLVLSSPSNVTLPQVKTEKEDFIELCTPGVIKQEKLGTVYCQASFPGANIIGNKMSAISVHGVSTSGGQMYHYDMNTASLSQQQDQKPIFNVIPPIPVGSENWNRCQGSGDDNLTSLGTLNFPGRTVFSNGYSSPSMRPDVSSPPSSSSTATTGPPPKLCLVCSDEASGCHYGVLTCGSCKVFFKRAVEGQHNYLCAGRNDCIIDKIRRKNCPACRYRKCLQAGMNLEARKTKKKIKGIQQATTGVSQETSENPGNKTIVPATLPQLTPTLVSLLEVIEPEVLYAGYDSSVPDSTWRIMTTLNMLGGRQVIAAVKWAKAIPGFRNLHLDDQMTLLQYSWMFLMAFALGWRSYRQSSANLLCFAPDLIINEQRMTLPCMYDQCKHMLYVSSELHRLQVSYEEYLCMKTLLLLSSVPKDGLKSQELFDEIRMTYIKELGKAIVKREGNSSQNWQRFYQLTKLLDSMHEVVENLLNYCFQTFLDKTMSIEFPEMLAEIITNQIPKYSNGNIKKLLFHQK
Description: Activity of corticosterone catabolites on GR. The conditions noted are these: reduced or hydroxylated corticosterone derivatives. It counts as cell-based.

Series [3] has as its target T2, SXR (Homo sapiens, UniProt O75469).
T2 sequence (O75469 1-434): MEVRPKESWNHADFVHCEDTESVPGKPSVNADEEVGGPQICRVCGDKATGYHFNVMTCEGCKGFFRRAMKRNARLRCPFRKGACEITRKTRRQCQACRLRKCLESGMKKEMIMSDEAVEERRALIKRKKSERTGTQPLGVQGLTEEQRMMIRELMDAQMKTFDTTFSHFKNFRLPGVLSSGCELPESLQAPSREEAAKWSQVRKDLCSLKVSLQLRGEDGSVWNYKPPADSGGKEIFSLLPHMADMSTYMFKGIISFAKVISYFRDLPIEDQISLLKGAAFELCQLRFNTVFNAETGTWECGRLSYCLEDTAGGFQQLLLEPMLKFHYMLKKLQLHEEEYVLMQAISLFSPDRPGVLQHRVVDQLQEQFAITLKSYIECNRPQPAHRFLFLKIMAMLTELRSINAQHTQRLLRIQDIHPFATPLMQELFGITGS
Description: Activation of SXR by thiazolidinediones in hepatocyte cultures and transgenic animals. As to the method: as §1
The animals were allowed free access to food and water at all times. […] When necessary, mice were treated with a single intraperitoneal injection of DEX (50 mg/kg), PCN (40 mg/kg), or CTZ (50 mg/kg).

For the next series, the target named is T3, CAR (Mus musculus, UniProt O35627).
T3 construct: expressed in transfected cells; host or cells: monkey kidney CV-1 cells
T3 sequence (O35627 1-358): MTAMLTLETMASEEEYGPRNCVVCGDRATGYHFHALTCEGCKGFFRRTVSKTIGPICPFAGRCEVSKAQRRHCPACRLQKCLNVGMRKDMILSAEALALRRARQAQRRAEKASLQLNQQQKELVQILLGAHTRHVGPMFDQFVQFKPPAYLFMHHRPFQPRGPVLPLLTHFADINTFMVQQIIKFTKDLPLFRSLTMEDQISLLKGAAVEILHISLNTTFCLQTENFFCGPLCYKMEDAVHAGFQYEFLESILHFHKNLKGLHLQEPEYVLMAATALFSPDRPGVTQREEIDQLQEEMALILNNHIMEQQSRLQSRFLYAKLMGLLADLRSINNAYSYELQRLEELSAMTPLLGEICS
Put plainly: tk-UGT1A6/DR-3 luciferase reporter transfected into CV-1 cells with CAR expression vector. Format: cell-based. Particulars: tk-UGT1A6/DR-3-Luc. The source says:
The reporter gene comprises a thymadine kinase (TK) linked to UGT1A6/DR-3 linked to a luciferace (LUC).
In an exemplary assay, a luciferase reporter gene containing the UGT1A6/DR-3 upstream of a minimal thymidine kinase (tk) promoter was constructed and transfected into monkey kidney CV-1 cells together with expression vectors for SXR, PXR, or CAR.
In FIG. 2, the tk-UGT1A6/DR3-Luc construct comprises a UGT inverted or direct repeat and/or a nuclear receptor binding site such that activation of the response element results in transcription of UGT. […] The response element can also comprise an inverse repeat of a suitable half site separated by a 6 nucleotide spacer, or an inverse repeat of a variant thereof, separated by a 6 nucleotide spacer.
(In general: A reporter such as luciferase makes a cellular process visible.)

For series [4], the target named is T4, PXR (Mus musculus, UniProt O54915).
T4 sequence (O54915 1-431): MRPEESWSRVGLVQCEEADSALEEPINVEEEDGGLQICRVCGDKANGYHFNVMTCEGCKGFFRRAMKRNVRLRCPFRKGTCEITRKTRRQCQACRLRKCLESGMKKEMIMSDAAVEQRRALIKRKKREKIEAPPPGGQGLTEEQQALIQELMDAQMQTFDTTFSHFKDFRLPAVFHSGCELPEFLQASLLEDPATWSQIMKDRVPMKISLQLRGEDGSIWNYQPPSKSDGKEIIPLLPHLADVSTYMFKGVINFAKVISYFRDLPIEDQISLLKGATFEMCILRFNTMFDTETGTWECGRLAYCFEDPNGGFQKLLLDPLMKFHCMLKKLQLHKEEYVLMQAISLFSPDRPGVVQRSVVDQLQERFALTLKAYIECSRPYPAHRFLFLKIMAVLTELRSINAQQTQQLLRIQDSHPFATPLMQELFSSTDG

The target in series [5] is T4, PXR. Description: Activation of mouse receptor PXR by the panel of compounds.
The conditions of series [6]: clinical trials, 2510 patients; alanine aminotransferase level > three times the upper limit of normal; cited from earlier work.
Where [7] appears, read: transfection-based assays, steroids tested.

“Also recorded” adds a separate entry of the source. Where two headings read alike, the source gives them in different places.

With `Cc1ccc2cc3c(ccc4ccccc43)c3c2c1CC3` [3MC, 3-methylcholanthrene], in series [1], the “activation of CYP3A23 cellular promoter reporter” value is reported as “fail to activate or behave as poor activators”. `C[C@]12CCC(=O)C[C@@H]1CC[C@@H]1[C@@H]2[C@@H](O)C[C@]2(C)[C@@H](C(=O)CO)CC[C@@H]12` [5α]: in the series on SXR [2], the “activation of SXR by products of steroid catabolism” value (“activation … of steroid catabolism” below) is “effective SXR activators”. Besides, the “activity on GR” value on GR is “slightly active”. Consider `C[C@]12CCC(=O)C[C@H]1CC[C@@H]1[C@@H]2[C@@H](O)C[C@]2(C)[C@@H](C(=O)CO)CC[C@@H]12` [5β], for which, in the series on SXR [2], the “activation … of steroid catabolism” value was “effective SXR activators”. Besides, the “activity on GR” value on GR is “completely inactive”.

For `C[C@]12C[C@H](O)[C@H]3[C@@H](C[C@@H](O)C4=CC(=O)CC[C@@]43C)[C@@H]1CC[C@@H]2C(=O)CO` [6β-hydroxy corticosterone], the “activation … of steroid catabolism” value in the series on SXR [2] was “virtually inactive; also recorded: virtual inactivity”. Also, at GR, the “activity on GR” value is listed as “slightly active”. Take `CN(CCOc1ccc(CC2SC(=O)NC2=O)cc1)c1ccccn1` (stereo not drawn) [BRL, Rosiglitazone]: the “activation of SXR by TZDs” value on SXR [3] (hepatocyte cultures and transgenic animals) is recorded as “fail to activate SXR”.

For the compound `CC/C(=C(/CC)c1ccc(O)cc1)c1ccc(O)cc1` [DES, diethylstilbestrol], the “activation of SXR by compounds known to induce CYP3A4” value (“activation of SXR by compounds known” below) in the series with SXR [2] is on record as “most potent activators”. Consider `C[C@]12CC[C@H](O)CC1=CC[C@@H]1[C@@H]2CC[C@]2(C)C(=O)CC[C@@H]12` [DHEA, dehydroepiandrosterone], for which the “SXR activation of DR-3, DR-4 and DR-5 elements” value (“SXR activation” below) in the series with SXR [2] is “intermediate group”.

With `Clc1cnc(Oc2ccc(Oc3ncc(Cl)cc3Cl)cc2)c(Cl)c1` [TCPOBOP, 1,4-bis[2-(3,5-dichloropyridyloxy)] benzene], the “effect on CAR activation of UGT reporter” value at CAR is reported as “potentiated”. Consider `C[C@]12CCC(=O)C=C1CC[C@@H]1[C@@H]2[C@@H](O)C[C@]2(C=O)[C@@H](C(=O)CO)CC[C@@H]12` [aldosterone], for which the “activation of SXR” value in the series with SXR [2] was “inactive”. For the same compound, in the series with SXR [2] (series of transfections), the “SXR activation” value is “little response”. Consider `C[C@@]12CCC[C@H]1[C@@H]1CC[C@H]3C[C@@H](O)CC[C@]3(C)[C@H]1CC2` [androstanol], for which the “effect on CAR activation of UGT reporter” value at CAR is “inhibited”. As to `C[C@]12C[C@H](O)[C@H]3[C@@H](CCC4=CC(=O)CC[C@@]43C)[C@@H]1CC[C@@H]2C(=O)CO` [corticosterone], the “activation of SXR by compounds known” value in the series with SXR [2] is recorded as “most potent activators”. The “SXR activation” value in the series with SXR [2] (series of transfections) is “among the best activators”. In addition, in the series with SXR [2] (setting [7]), the “activation of SXR” value was “most potent and efficacious activator; also recorded: activated; also recorded: strongest known activator”. Consider `C[C@]12CCC(=O)C=C1CC[C@@H]1[C@@H]2[C@@H](O)C[C@@]2(C)[C@H]1CC[C@]2(O)C(=O)CO` [cortisol], for which the “SXR activation” value in the series on SXR [2] (series of transfections) was “little response”.

Consider `C[C@]12CCC(=O)C=C1CC[C@@H]1[C@@H]2C(=O)C[C@@]2(C)[C@H]1CC[C@]2(O)C(=O)CO` [cortisone], for which the “SXR activation” value in the series with SXR [2] (series of transfections) was “intermediate group”. In the case of `O=c1oc2cc(O)ccc2c2oc3cc(O)ccc3c12` [coumestrol], in the series on SXR [2], the “activation of SXR by compounds known” value is given as “most potent activators”. For `C[C@]12CCC(=O)C[C@@H]1CC[C@@H]1[C@@H]2CC[C@]2(C)[C@@H](O)CC[C@@H]12` [dihydrotestosterone], in the series with SXR [2], the “SXR activation” value is “among the best activators”; the “activation of SXR” value is “remarkably effective activators”.

Regarding `C[C@]12CC[C@@H]3c4ccc(O)cc4CC[C@H]3[C@@H]1CC[C@@H]2O` [estradiol, 17β-estradiol], in the series with SXR [2], the “activation of SXR by compounds known” value is given as “most potent activators”. In addition, in the series with SXR [2] (series of transfections), the “SXR activation” value is “among the best activators”. Further, in the series with SXR [2] (setting [7]), the “activation of SXR” value is given as “remarkably effective activators”. The “induction of CYP3A23 cellular promoter reporter” value (“induction” below) in series [1] is reported as “significant induction”. In addition, the “activation of PXR” value on PXR [4] is “similarly activated”. Consider `CCC1(c2ccccc2)C(=O)NC(=O)NC1=O` [phenobarbital], for which, in series [1], the “activation of CYP3A23 cellular promoter reporter” value is given as “fail to activate or behave as poor activators” and the “induction” value is “significant induction”.

As to `CC(=O)[C@H]1CC[C@H]2[C@@H]3CC=C4C[C@@H](O)CC[C@]4(C)[C@H]3CC[C@]12C` [pregnenolone], the “SXR activation” value in the series with SXR [2] (series of transfections) was “among the best activators”. In series [1], the “activation of CYP3A23 cellular promoter reporter” value is reported as “fail to activate or behave as poor activators” and the “induction” value is reported as “significant induction”. For `CC(=O)[C@H]1CC[C@H]2[C@@H]3CCC4=CC(=O)CC[C@]4(C)[C@H]3CC[C@]12C` [progesterone], in the series with SXR [2] (series of transfections), the “SXR activation” value is recorded as “among the best activators”. Moreover, the “activation of SXR” value in the series on SXR [2] (setting [7]) is reported as “activated”. For `C[C@]12CC[C@H]3[C@@H](CCC4=CC(=O)CC[C@@]43C)[C@@H]1CC[C@@H]2O` [testosterone], the “activation of SXR” value in the series on SXR [2] is “activated”. In addition, on PXR [5], the “activation of PXR” value is reported as “similarly activated”. `Cc1c(C)c2c(c(C)c1O)CCC(C)(COc1ccc(CC3SC(=O)NC3=O)cc1)O2` (stereo not drawn) [troglitazone]: the “activation of SXR by TZDs” value on SXR [3] is recorded as “activate SXR”. In addition, the “troglitazone-induced hepatotoxicity, share of patients” value in series [6] is 1.9%. For estrogen, the “activation of SXR” value in the series with SXR [2] (setting [7]) is recorded as “activated”.

(Values after US7413853B2, “Modulation of metabolism of steroids and xenobiotics” (The Salk Institute for Biological Studies, priority 2001, dated 2008).)
